# Source: US20200261440A1, “ZINC IONOPHORES AND USES THEREOF” (THE UNIVERSITY OF QUEENSLAND, priority 2017, published 2020)
# Entries after “also recorded” stand apart in the source; their conditions may differ. Read-outs that look alike come from different tables or passages of the source.
# Columns and labels:
# [1] = system: Methicillin-resistant Staphylococcus aureus (MRSA) strain USA300; test: MIC by broth microdilution (CLSI); conditions: for MIC: Staphylococcus aureus; for antibiotic sensitivity of resistant strain: addition of sub-inhibitory PBT2+zinc(II) ions
# Method: GAS HKU16, MRSA USA300, VRE RBWH1, Klebsiella pneumoniae strain MS6771, E. coli strain MS8345 and Streptococcus pneumoniae strain 23F were grown in Todd-Hewitt broth (THB) or agar with 1% yeast extract (THY) [Todd, E. W. & Hewitt, L. F. A new culture medium for the production of antigenic streptococcal haemolysin. […] Bacteria were routinely grown at 37° C. in ambient air.
# MICs were determined by broth microdilution in accordance to CLSI guidelines (“Methods for Dilution Antimicrobial Susceptibility Tests for Bacteria That Grow Aerobically”, Clinical and Laboratory Standards Institute) [Clinical and Laboratory Standards Institute. […] For MRSA, VRE, Klebsiella pneumoniae and E. coli the assays were performed in MHB, and for GAS and Streptococcus pneumoniae MHB+2.5% lysed horse blood (LHB) was used. The bacterial inoculum was prepared by direct colony suspension aiming for 2-8×10^5 colony forming units (CFU)/mL bacteria per well. Antibiotics/compounds were serially diluted two-fold across the 96-well plate, the last column contained no antibiotics/compounds. The inoculum was added to the plate containing antibiotic/compound and incubated for 16-24 h at 35+/−2° C. […] MIC assays were carried out in biological triplicates.
# Using Clinical and Laboratory Standards Institute guidelines for antimicrobial sensitivity testing [Clinical and Laboratory Standards Institute.
# [2] = system: Klebsiella pneumoniae strain MS6771; test: MIC by broth microdilution (CLSI); assay type: cell-based; conditions: for MIC: Klebsiella pneumoniae; for antibiotic sensitivity of resistant strain: Klebsiella pneumoniae MS6771, addition of sub-inhibitory PBT2+zinc(II) ions
# [3] = system: GAS strain HKU16 (Streptococcus pyogenes strain HKU16); test: microbe, parasite or virus in culture; assay type: cell-based; conditions: GAS
# Method: (§1) J. Path. Bact. […] Proc. Soc.
# (§2) MIC assays were carried out in biological triplicates.
# (§3) M100 Performance Standards for Antimicrobial Susceptibility Testing, 27th Edition.
# [4] = system: Vancomycin-resistant Enterococci (VRE) clinical isolate RBWH1; test: MIC by broth microdilution (CLSI); assay type: cell-based, Enterococcus; conditions: Enterococcus, VRE, read-out: MIC
# Method: as §1, §2, §3
# [5] = system: Streptococcus pneumoniae 23F; test: MIC by broth microdilution (CLSI); assay type: cell-based
# [6] = MRSA|USA300, MRSA, RA-HQ-12: 3.5 μM, oxacillin with 2% NaCl
# [7] = MS6771, Klebsiella pneumoniae, CQ: 0 μM, Zinc: 0 μM, read-out: MIC
# [8] = MS6771, Klebsiella pneumoniae, CQ: 64 μM, Zinc: 256 μM, read-out: MIC
# [9] = MS6771, Klebsiella pneumoniae, CQ: 64 μM, read-out: MIC
# [10] = MS6771, Klebsiella pneumoniae, PBT2: 0 μM, Zinc: 0 μM, read-out: MIC
# [11] = MS6771, Klebsiella pneumoniae, PBT2: 64 μM, Zinc: 256 μM, read-out: MIC
# [12] = MS6771, Klebsiella pneumoniae, PBT2: 64 μM, read-out: MIC
# [13] = MS6771, Klebsiella pneumoniae, Zinc: 256 μM (CQ panel), read-out: MIC
# [14] = MS6771, Klebsiella pneumoniae, Zinc: 256 μM (PBT2 panel), read-out: MIC
# [15] = MRSA|USA300, MRSA USA300, CQ: 0.75 μM, Zinc: 16 μM, +2% NaCl
# [16] = MRSA|USA300, MRSA USA300, PBT2: 2 μM, Zinc: 25 μM, +2% NaCl
Molecule,"MIC [2, 7] [µg/mL]","MIC [2, 8] [µg/mL]","MIC [2, 9] [µg/mL]","MIC [2, 10] [µg/mL]","MIC [2, 11] [µg/mL]","MIC [2, 12] [µg/mL]","MIC [2, 13] [µg/mL]","MIC [2, 14] [µg/mL]",also measured
"CC[C@H]1OC(=O)[C@H](C)[C@@H](O[C@H]2C[C@@](C)(OC)[C@@H](O)[C@H](C)O2)[C@H](C)[C@@H](O[C@@H]2O[C@H](C)C[C@H](N(C)C)[C@H]2O)[C@](C)(O)C[C@@H](C)CN(C)[C@H](C)[C@@H](O)[C@]1(C)O [Azithromycin, azithromycin]",–,–,–,–,–,–,–,–,"MIC [1]: 128 µg/mL; MIC ([1]; MRSA|USA300, MRSA, RA-HQ-12: 3.5 μM, Zn: […], oxacillin with 2% NaCl): 32 µg/mL; MIC [1, 6]: 64 µg/mL; MIC ([2]; MS6771, K. pneumoniae, RA-HQ-12: 0 μM, Zn: 0 μM, read-out: MIC): 32 µg/mL; MIC ([2]; MS6771, K. pneumoniae, RA-HQ-12: 16 μM, Zn: 64 μM, read-out: MIC): 32 µg/mL; MIC ([2]; MS6771, K. pneumoniae, RA-HQ-12: 16 μM, read-out: MIC): 32 µg/mL; MIC ([2]; MS6771, K. pneumoniae, Zn: 64 μM, read-out: MIC): 32 µg/mL; MIC ([3]; Streptococcus pyogenes, RA-HQ-12: 0 μM, Zn: 0 μM, read-out: MIC): > 128 µg/mL; MIC ([4]; RA-HQ-12: 3.5 μM, Zn: […]): > 128 µg/mL; MIC ([4]; RA-HQ-12: 3.5 μM): > 128 µg/mL; MIC ([4]; Zn: […] (RA-HQ-12 panel)): > 128 µg/mL; MIC ([4]; RA-HQ-12: 0 μM, Zn: 0 μM): > 128 µg/mL"
"CN(C)c1cc(NC(=O)CNC(C)(C)C)c(O)c2c1C[C@H]1C[C@H]3[C@H](N(C)C)C(O)=C(C(N)=O)C(=O)[C@@]3(O)C(O)=C1C2=O [Tigecycline, tigecycline]",–,–,–,–,–,–,–,–,"antibiotic sensitivity of resistant strain [2]: became sensitive; MIC ([2]; MS6771, Klebsiella pneumoniae, CQ: 0 μM, Zinc: 0 μM): 4 µg/mL; MIC ([2]; MS6771, Klebsiella pneumoniae, CQ: 64 μM): 4 µg/mL; MIC ([2]; MS6771, Klebsiella pneumoniae, CQ: 64 μM, Zinc: 256 μM): 4 µg/mL; MIC ([2]; MS6771, Klebsiella pneumoniae, PBT2: 0 μM, Zinc: 0 μM): 4 µg/mL; MIC ([2]; MS6771, Klebsiella pneumoniae, PBT2: 64 μM): 2 µg/mL; MIC ([2]; MS6771, Klebsiella pneumoniae, PBT2: 64 μM, Zinc: 256 μM): 2 µg/mL; MIC ([2]; MS6771, Klebsiella pneumoniae, Zinc: 256 μM (CQ panel)): 4 µg/mL; MIC ([2]; MS6771, Klebsiella pneumoniae, Zinc: 256 μM (PBT2 panel)): 4 µg/mL"
"COc1cc(Cc2cnc(N)nc2N)cc(OC)c1OC [Trimethoprim, trimethoprim]",> 128,> 128,> 128,> 128,> 128,> 128,> 128,> 128,–
"CO[C@@]1(NC(=O)Cc2cccs2)C(=O)N2C(C(=O)O)=C(COC(N)=O)CS[C@@H]21 [Cefoxitin, cefoxitin]",128,64,64,128,64,64,128,128,–
"C[C@@H](O)[C@H]1C(=O)N2C(C(=O)O)=C(S[C@@H]3CN[C@H](C(=O)N(C)C)C3)[C@H](C)[C@H]12 [Meropenem, meropenem]",64,8 to 16,8 to 16,64,16,32,16 to 32,16 to 32,–
"COc1cccc(OC)c1C(=O)N[C@@H]1C(=O)N2[C@@H]1SC(C)(C)[C@@H]2C(=O)O [Methicillin, methicillin]",–,–,–,–,–,–,–,–,"MIC ([1]; MRSA USA300, CQ: 0 μM, Zinc: 0 μM, +2% NaCl): > 128 µg/mL; MIC ([1]; MRSA USA300, CQ: 0.75 μM, +2% NaCl): > 128 µg/mL; MIC ([1]; MRSA USA300, PBT2: 2 μM, +2% NaCl): > 128 µg/mL; MIC ([1]; MRSA USA300, Zinc: 16 μM, +2% NaCl): > 128 µg/mL; MIC ([1]; MRSA USA300, Zinc: 25 μM, +2% NaCl): > 128 µg/mL; MIC [1, 15]: > 128 µg/mL; MIC ([1]; MRSA|USA300, MRSA USA300, PBT2: 0 μM, Zinc: 0 μM, +2% NaCl): > 128 µg/mL; MIC [1, 16]: > 128 µg/mL"
gentamicin,–,–,–,–,–,–,–,–,"MIC ([5]; PBT2: 0 μM, Zinc: 0 μM): 64 µg/mL; MIC ([5]; PBT2: 8 μM): 4 µg/mL; MIC ([5]; PBT2: 8 μM, Zinc: 32 μM): 1 µg/mL; MIC ([5]; Zinc: 32 μM): 64 µg/mL"
"Cc1onc(-c2ccccc2)c1C(=O)N[C@@H]1C(=O)N2[C@@H]1SC(C)(C)[C@@H]2C(=O)O [Oxacillin, oxacillin]",–,–,–,–,–,–,–,–,"antibiotic sensitivity of resistant strain ([1]; MRSA USA300): became sensitive; MIC [1, 15]: 0.5 to 1 µg/mL; MIC [1, 16]: 1 to 2 µg/mL; MIC ([3]; RA-HQ-12: 3.5 μM): 0.125 µg/mL"
"C[C@H]1c2cccc(O)c2C(=O)C2=C(O)[C@]3(O)C(=O)C(C(N)=O)=C(O)[C@@H](N(C)C)[C@@H]3[C@@H](O)[C@@H]21 [Doxycycline, doxycycline]",8 to 16,8,8,8 to 16,4,4 to 8,8 to 16,8 to 16,–
CCO/N=C(\C(=O)N[C@@H]1C(=O)N2C(C(=O)[O-])=C(Sc3nc(-c4cc[n+](C)cc4)cs3)CS[C@H]12)c1nsc(N)n1 [Ceftaroline],> 128,> 128,> 128,> 128,> 128,> 128,> 128,> 128,–
"NCC[C@H](O)C(=O)N[C@@H]1C[C@H](N)[C@@H](O[C@H]2O[C@H](CN)[C@@H](O)[C@H](O)[C@H]2O)[C@H](O)[C@H]1O[C@H]1O[C@H](CO)[C@@H](O)[C@H](N)[C@H]1O [Amikacin, amikacin]",> 128,> 128,> 128,> 128,> 128,> 128,> 128,> 128,antibiotic sensitivity of resistant strain [2]: not
"O=C(N[C@H](CO)[C@H](O)c1ccc([N+](=O)[O-])cc1)C(Cl)Cl [Chloramphenicol, chloramphenicol]",128,64,64,128,128,128,128,128,"MIC ([5]; Streptococcus pneumoniae, 23F, PBT2: 0 μM, Zinc: 0 μM, read-out: MIC): 16 µg/mL; MIC ([5]; Streptococcus pneumoniae, 23F, PBT2: 8 μM, Zinc: 32 μM, read-out: MIC): 2 µg/mL; MIC ([5]; Streptococcus pneumoniae, 23F, PBT2: 8 μM, read-out: MIC): 16 µg/mL; MIC ([5]; Streptococcus pneumoniae, 23F, Zinc: 32 μM, read-out: MIC): 16 µg/mL; antibiotic sensitivity of resistant strain ([5]; addition of sub-inhibitory PBT2+zinc(II) ions): became sensitive"
"CC[C@H]1OC(=O)[C@H](C)[C@@H](O[C@H]2C[C@@](C)(OC)[C@@H](O)[C@H](C)O2)[C@H](C)[C@@H](O[C@@H]2O[C@H](C)C[C@H](N(C)C)[C@H]2O)[C@](C)(O)C[C@@H](C)C(=O)[C@H](C)[C@@H](O)[C@]1(C)O [Erythromycin, erythromycin]",–,–,–,–,–,–,–,–,"antibiotic sensitivity of resistant strain ([1]; MRSA USA300): became sensitive; also recorded: reversed; MIC ([1]; MRSA USA300, CQ: 0 μM, Zinc: 0 μM): 64 µg/mL; MIC ([1]; MRSA USA300, CQ: 1 μM): 64 µg/mL; MIC ([1]; MRSA USA300, CQ: 1 μM, Zinc: 32 μM): 1 µg/mL; MIC ([1]; MRSA USA300, PBT2: 0 μM, Zinc: 0 μM): 64 µg/mL; MIC ([1]; MRSA USA300, PBT2: 2 μM): 32 µg/mL; MIC ([1]; MRSA USA300, PBT2: 2 μM, Zinc: 50 μM): 0.5 µg/mL; MIC ([1]; MRSA USA300, Zinc: 32 μM): 64 µg/mL; MIC ([1]; MRSA USA300, Zinc: 50 μM): 64 µg/mL; MIC [1, 6]: 64 µg/mL"
"CC(C)(O/N=C(\C(=O)N[C@@H]1C(=O)N2C(C(=O)[O-])=C(C[n+]3ccccc3)CS[C@H]12)c1csc(N)n1)C(=O)O [Ceftazidime, ceftazidime]",32,16,16,32,32,32,32,32,–
